Data published in the supplement of paper PMC10307832.

What was measured:
Assay in all cases: relative viability (nuclei count vs DMSO), 5 days (fraction); higher = more cells survive
Afatinib + Decitabine = compound: CN(C)C/C=C/C(=O)Nc1cc2c(Nc3ccc(F)c(Cl)c3)ncnc2cc1O[C@H]1CCOC1 [Afatinib] + Nc1ncn([C@H]2C[C@H](O)[C@@H](CO)O2)c(=O)n1 [Decitabine] (partner 2 µM)
Outline: (§1)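 The day after seeding in 1536-well plates, lung cancer cell lines were treated by pin tool with a single drug, or with a fixed anchor-drug dose together with five library-drug doses (not always all listed) in √10 steps. After 5 days, a combined fix-and-stain solution (final 0.05% Triton X-100, 1% formaldehyde, 1 ug/ml Hoechst) was added. Nuclei counted on 4× images gave relative viability as treated counts over vehicle counts, reported as the median of duplicate plates.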

Afatinib + Crizotinib = compound: CN(C)C/C=C/C(=O)Nc1cc2c(Nc3ccc(F)c(Cl)c3)ncnc2cc1O[C@H]1CCOC1 [Afatinib] + C[C@@H](Oc1cc(-c2cnn(C3CCNCC3)c2)cnc1N)c1c(Cl)ccc(F)c1Cl [Crizotinib] (partner 1 µM)
Outline: as §1

Afatinib + Phenformin = compound: CN(C)C/C=C/C(=O)Nc1cc2c(Nc3ccc(F)c(Cl)c3)ncnc2cc1O[C@H]1CCOC1 [Afatinib] + N=C(N)NC(=N)NCCc1ccccc1 [Phenformin] (partner 250 µM)
Outline: as §1

Afatinib + Navitoclax = compound: CN(C)C/C=C/C(=O)Nc1cc2c(Nc3ccc(F)c(Cl)c3)ncnc2cc1O[C@H]1CCOC1 [Afatinib] + CC1(C)CCC(c2ccc(Cl)cc2)=C(CN2CCN(c3ccc(C(=O)NS(=O)(=O)c4ccc(N[C@H](CCN5CCOCC5)CSc5ccccc5)c(S(=O)(=O)C(F)(F)F)c4)cc3)CC2)C1 [Navitoclax] (partner 0.5 µM)
Outline: as §1

Cell Line	relative viability (Afatinib + Decitabine; first compound 0.005 µM)	relative viability (Afatinib + Decitabine; first compound 0.01581 µM)	relative viability (Afatinib + Decitabine; first compound 0.05 µM)	relative viability (Afatinib + Decitabine; first compound 0.1581 µM)	relative viability (Afatinib + Decitabine; first compound 0.5 µM)	relative viability (Afatinib + Crizotinib; first compound 0.005 µM)	relative viability (Afatinib + Crizotinib; first compound 0.01581 µM)	relative viability (Afatinib + Crizotinib; first compound 0.05 µM)	relative viability (Afatinib + Crizotinib; first compound 0.1581 µM)	relative viability (Afatinib + Crizotinib; first compound 0.5 µM)	relative viability (Afatinib + Phenformin; first compound 0.005 µM)	relative viability (Afatinib + Phenformin; first compound 0.05 µM)	relative viability (Afatinib + Phenformin; first compound 0.1581 µM)	relative viability (Afatinib + Phenformin; first compound 0.5 µM)	relative viability (Afatinib + Navitoclax; first compound 0.005 µM)	relative viability (Afatinib + Navitoclax; first compound 0.01581 µM)	relative viability (Afatinib + Navitoclax; first compound 0.05 µM)	relative viability (Afatinib + Navitoclax; first compound 0.1581 µM)	relative viability (Afatinib + Navitoclax; first compound 0.5 µM)	relative viability (Afatinib + Phenformin; first compound 0.01581 µM)
NCI-H727	0.826	0.534	0.831	0.761	0.829	0.804	0.802	0.53	0.541	0.583	0.493	0.299	0.613	0.442	0.371	0.349	0.407	0.345	0.353	
NCI-H838	0.496	0.445	0.481	0.451	0.461	0.782	0.87	0.901	0.791	0.937	0.675	0.582	0.567	0.553	1.12	1.14	1.27	1.2	1.16	0.54
NCI-H1355	0.377	0.332	0.341	0.356	0.332	1.16	0.983	1.01	0.792	0.816	0.484	0.482	0.424	0.421	0.807	1.02	0.823	0.764	0.792	0.491
NCI-H1437	0.597	0.552	0.542	0.535	0.552	0.985	1.01	0.988	0.881	0.966	0.333	0.334	0.358	0.302	1.1	1.1	1.17	1.1	1.1	0.294
NCI-H1650	0.383	0.403	0.426	0.503	0.368	0.907		0.8	0.612	0.796	0.368	0.351	0.308	0.308	0.979		1.25	0.962	1.22	
NCI-H1651	0.558	0.57	0.6	0.576	0.585	0.911	0.85	0.817	0.855	0.82	0.368	0.288	0.329	0.332	1.18	0.989	1.08	0.949	0.941	0.333
NCI-H1666	0.702	0.67	0.642	0.562	0.657	0.879	0.885	0.661		0.676	0.572	0.607	0.555	0.567	0.887	0.748	0.583		0.389	0.553
NCI-H1734	0.542	0.538	0.47	0.491	0.489	0.82	0.687	0.652	0.568	0.642	0.419	0.412	0.351	0.405	1.01	0.877	0.885	0.78	0.781	0.383
NCI-H1755	0.725	0.693	0.728	0.695	0.661	0.894	0.869	0.848	0.852	0.868	0.677	0.823	0.578	0.617	0.957	0.981	1.08	0.995	0.987	0.663
NCI-H1792	0.505	0.592	0.489	0.522	0.513	1.04	1.01	0.977	0.907	0.856	0.16	0.398	0.2	0.238	0.745	0.537	0.587	0.629	0.625	0.198
NCI-H1915	0.269	0.268	0.272	0.268	0.269	1	0.963	0.872	0.957	0.894	0.389	0.363	0.378	0.33	0.795	0.763	0.779	0.813	0.778	0.379
NCI-H1944	0.423	0.403	0.419	0.343	0.344	1.08	0.989	0.883	0.596	0.709	0.19	0.188	0.174	0.166	1.04	0.959	0.903	0.668	0.765	0.195
NCI-H1975	0.395	0.283	0.391	0.264	0.373	1.14	1.07	1.01	0.45	0.307	0.444	0.373	0.223	0.166	1.19	1.14	1.24	0.488	0.624	0.413
NCI-H1993	0.552	0.51	0.546	0.509	0.578	0.647	0.732	0.656	0.76	0.771	0.596	0.656	0.639	0.589	0.674	0.722	0.735	0.788	0.704	0.645
NCI-H2009	0.398	0.383	0.357	0.366	0.358	1.07	0.977	1.12	1.04	1.04	0.515	0.545	0.424	0.445	1.19	1.12	1.27	1.15	1.18	0.481
NCI-H2023	0.234	0.197	0.211	0.2	0.234	0.576	0.487	0.407	0.402	0.487	0.436	0.412	0.291	0.375	1.01	1.01	0.876	0.792	0.854	0.382
